Reference: PubChem BioAssay (NCI)
Values joined by “and” are separate entries in the source; they are usually repeats but may differ in a detail not shown here. Equal entries are not always repeated.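 Protocol summary: plate cells (96-well), add compound at 5 concentrations, incubate 48 h, interpolate endpoints linearly. At the GI50, growth is halved. TGI denotes the concentration required for complete inhibition of growth.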

These compounds were tested on SN12C renal (assay: growth of human tumour cells (NCI), 48 h).

Which results are given for `CC(C)CCN1c2nc(Nc3cc(F)c(O)c(F)c3)ncc2N(C)C(=O)C1C` (centres undefined)?
GI50: 4.9 µM; TGI: > 91.6 µM

`Cn1c2c(c3ccccc31)C1CCCCCCC1C1C(=O)OC(=O)C21` (centres undefined) was tested. Which TGI did it give?
Its TGI is > 100 µM.

With `Cc1ccc(S(=O)(=O)N(CC(=O)O)c2ccccc2)cc1` as the compound, how does the TGI read?
Its TGI is > 100 µM.

Which TGI does the source give for `COc1ccc(C(=O)C(c2ccc(OC)cc2)C2(O)C(=O)Nc3ccc([N+](=O)[O-])cc32)cc1` (centres undefined) here?
Its TGI is 24.4 µM.

For `O=C(/C=C/c1ccccc1O)c1ccccc1O`, which TGI is on record?
Its TGI is > 100 µM.

`Cc1nc2c(-c3cnc(N)nc3)nc(N3CCOCC3)nc2n1C(C)C` was tested. Which TGI did it give?
The TGI was > 100 µM.

Which GI50 does the source give for `COc1ccc(/C=C(/C(=O)N2CCN(c3ccccc3)CC2)c2cc(OC)c(OC)c(OC)c2)cc1O` here?
Its GI50 is 0.564 µM.

What about the TGI of the same compound?
Its TGI is > 100 µM.

Which results are given for `N#Cc1c(NN)n(C2OC(CO)C(O)C2O)c2ncnc(N)c12` (centres undefined)?
GI50: 0.151 µM; TGI: > 47.5 µM

Which TGI does the source give for `N#CC(N)(C(=O)CCC(=O)Nc1cccc(Cl)c1)c1ccc(Cl)cc1` (centres undefined) here?
Its TGI is > 100 µM.

Which GI50 does the source give for `COc1cnc2c(c1)C(=O)c1c-2n(CCCNC(C)C)c(=O)c2cc(Cl)ccc12` here?
Its GI50 is 0.417 µM.

What about the TGI of the same compound?
The TGI was 2.11 µM.

How did the TGI turn out when `S=C(Nc1ccccc1)N(/N=C/C=C/c1ccccc1)c1nnc(-c2ccccc2)c(-c2ccccc2)n1` was run?
The TGI was > 100 µM.

Which results are given for `CN1CCN(CCOc2ccc(-c3cnc4c(-c5ccccc5F)cnn4c3)cc2)CC1`?
GI50: 1.78 µM; TGI: 3.6 µM

These compounds were tested on A498 renal (assay: growth of human tumour cells (NCI), 48 h).

How did the GI50 turn out when `OC[C@H]1C[C@](O)(c2ccc(Cl)cc2)[C@@H](c2ccc(Cl)cc2)O1` was run?
The GI50 was 24.6 µM.

What about the TGI of the same compound?
Its TGI is 57.3 µM.

With `CC(C)N(C(=O)C12C3C4C5(C#N)C3C1(C#N)C5C42I)C(C)C` (centres undefined) as the compound, how does the TGI read?
Its TGI is > 100 µM.

With `COc1ccc2c3c([nH]c2c1[N+](=O)[O-])C(C)=NCC3` as the compound, how does the TGI read?
The TGI was > 100 µM.

For `C=CCCCCC/C=C\[C@H](O)C#CC#C/C=C/CO`, which GI50 is on record?
Its GI50 is 20.3 µM.

And the TGI?
Its TGI is 51.9 µM.

For `Cc1cc([N+](=O)[O-])ccc1Nc1cccc(Cl)c1C`, which TGI is on record?
Its TGI is 29 µM.

`O/N=C/C1C(OCc2ccccc2)C(OCc2ccccc2)C(OCc2ccccc2)CN1Cc1ccccc1` (centres undefined) was tested. Which TGI did it give?
Its TGI is > 100 µM.

`CC1=C(C(=O)Nc2ccccc2)C(c2ccccc2)C(C(=O)Nc2ccccc2)=C(C)N1` was tested. Which TGI did it give?
The TGI was > 100 µM.

Which TGI does the source give for `Cc1nn(-c2ccccc2)c2nc(N3CCOCC3)nnc12` here?
The TGI was > 100 µM.

For `[Cl][Hg][c]1cc(Br)cc(Br)c1`, which GI50 is on record?
Its GI50 is 2.64 µM.

And the TGI?
Its TGI is 8.01 µM.

Which GI50 does the source give for `C=C1C(=O)O[C@@H]2C[C@@H]1CC/C(C)=C/CC/C(C)=C/CC[C@@]2(C)O` here?
The GI50 was 23.4 µM.

And the TGI?
The TGI was 41.3 µM.

Which TGI does the source give for `CCOc1ccccc1C=C1c2ccccc2C(=O)c2ccccc21` here?
The TGI was > 100 µM.

For `O=C(CCn1[nH]c(=O)c(Cl)c(Cl)c1=O)NO`, which TGI is on record?
The TGI was > 100 µM.

For `[N-]=[N+]=NC12CC3C4CC5CC3C(C1)C(C5)C4C2`, which TGI is on record?
The TGI was > 100 µM.

`NNC(=S)N/N=C(\CC1OC(=O)c2ccccc21)c1ccccc1O` (centres undefined) was tested. Which TGI did it give?
The TGI was 95.4 µM.

How did the TGI turn out when `COC(=O)C1=C(O)c2cc(OC)c(OC)cc2C(c2ccc(OC)c(OC)c2)C1` (centres undefined) was run?
Its TGI is 98.2 µM.

How did the TGI turn out when `COC1(OC)CC2C(=O)N(Cc3ccccc3)C1C(S(=O)(=O)c1ccccc1)C2S(=O)(=O)c1ccccc1` (centres undefined) was run?
The TGI was 58.2 µM.

For `NC(=Nc1c([N+](=O)[O-])cnc2ccccc12)N1CCOCC1`, which TGI is on record?
The TGI was > 100 µM.

Which GI50 does the source give for `CCN(CC)c1ccc2c(c1)OC(N)=C(C#N)C2c1cc(OC)c2c(c1)OCO2` (centres undefined) here?
Its GI50 is 0.0201 µM.

What about the TGI of the same compound?
The TGI was 0.0809 µM.

For `Cc1cc(CC(O)c2ccc(Cl)c(Cl)c2)nc(=O)[nH]1` (centres undefined), which TGI is on record?
Its TGI is > 100 µM.

Which TGI does the source give for `CC1=NNC(=O)C2CCC(=O)N12` (centres undefined) here?
Its TGI is > 100 µM.

Which TGI does the source give for `CC(C)c1ccccc1NC(=O)CCc1n[nH]c(=S)o1` here?
Its TGI is > 100 µM.

For `CCCCC(C(=O)C(=O)NC1C2CC3CC(C2)CC1C3)C(=O)C(C)C` (centres undefined), which TGI is on record?
The TGI was > 100 µM.

For `COC(=O)c1cc2c(s1)C(=O)c1ccccc1-2`, which TGI is on record?
The TGI was > 100 µM.

With `CC(C)CCN1c2nc(Nc3cc(F)c(O)c(F)c3)ncc2N(C)C(=O)C1C` (centres undefined) as the compound, how does the GI50 read?
Its GI50 is 18.3 µM.

And the TGI?
Its TGI is 54.6 µM.

For `Cn1c2c(c3ccccc31)C1CCCCCCC1C1C(=O)OC(=O)C21` (centres undefined), which TGI is on record?
Its TGI is > 100 µM.

With `Cc1ccc(S(=O)(=O)N(CC(=O)O)c2ccccc2)cc1` as the compound, how does the TGI read?
The TGI was > 100 µM.

How did the TGI turn out when `COc1ccc(C(=O)C(c2ccc(OC)cc2)C2(O)C(=O)Nc3ccc([N+](=O)[O-])cc32)cc1` (centres undefined) was run?
Its TGI is 31.5 µM.

`O=C(/C=C/c1ccccc1O)c1ccccc1O` was tested. Which TGI did it give?
The TGI was > 100 µM.

How did the TGI turn out when `Cc1nc2c(-c3cnc(N)nc3)nc(N3CCOCC3)nc2n1C(C)C` was run?
The TGI was 0.156 µM and 0.0587 µM.

`COc1ccc(/C=C(/C(=O)N2CCN(c3ccccc3)CC2)c2cc(OC)c(OC)c(OC)c2)cc1O` was tested. Which GI50 did it give?
The GI50 was 0.211 µM.

What about the TGI of the same compound?
Its TGI is 1.92 µM.
